Results from EP4610262A1, “MACROCYCLIC COMPOUND AS CDK9 INHIBITOR AND USE THEREOF” (Artivila Biopharma, priority 2022, dated 2024).

Legend:
Test in all cases: Kinase selectivity, inhibition rate at 10 nM (caliper mobility shift assay)
Type in all cases: biochemical
Conditions in all cases: compound at 10 nM
CDK7 = CDK7 (Homo sapiens, UniProt P50613)
Experimental: (§1) Compounds were tested at a concentration of 10 nM with detection in duplicate wells, or tested at 10 concentrations starting from 10 µM with three-fold serial dilutions, with detection in duplicate wells.
(§2) The inhibitory effect of the compounds on the activity of CDK9 protein kinase was detected by the caliper mobility shift assay method. 250 nL of the compound at 100-fold final concentration was transferred to a target 384-well-plate with a dispenser Echo 550. A kinase solution at 2.5-fold final concentration was prepared using 1× kinase buffer. 10 µL of the kinase solution at 2.5-fold final concentration was added to the compound well and positive control well respectively. 10 µL of 1× kinase buffer was added to the negative control well. The 384-well plate was centrifuged at 1000 rpm for 30 seconds and incubated at room temperature for 10 minutes. A mixed solution of ATP and kinase substrate at 5/3-fold final concentration was prepared with 1× kinase buffer, and to the 384-well plate was added with 15 µL per well of the mixed solution of ATP and substrate at 5/3-fold final concentration to start the reaction. The plate was centrifuged at 1000 rpm for 30 seconds, shaken to mix evenly, and incubated at room temperature for a corresponding time. 30 µL of detection stopping solution was added to terminate the kinase reaction. The 384-well plate was centrifuged at 1000 rpm for 30 seconds and shaken to mix evenly. The conversion rate was read with Caliper EZ Reader. The percent conversion inhibition rate = (% positive control conversion rate mean - % sample conversion rate / (% positive control conversion rate mean - % negative control conversion rate mean). Among them: negative control wells represent the conversion rate readings of kinase buffer background wells; positive control wells represent the conversion rate readings of wells without inhibition by compound. With the log value of concentration as the x-axis and the percentage inhibition rate as the y-axis, a dose-response curve was fitted using the log (inhibitor) vs. response -Variable slope of the analysis software GraphPad Prism 5 to obtain the IC50 value of each compound on enzyme activity. Calculation formula: y=Bottom + (Top-Bottom)/(1+10^((LogIC50-x) × hillslope)), x: logarithm of inhibitor concentration; y: % inhibition rate.
(§3) According to the description of the above experiment on kinase activity inhibition, some compounds were tested for their selective inhibition rate against the kinases of CDK7, CDK9, JAK1, JAK2, JAK3, ITK, RET, TYK2, and LRRK2 at 10 nM. The results are shown in Table 3 below: (Inhibition rate range: A>50%; B: 25-49%; C: <25%): […]

LRRK2 = LRRK2 (Homo sapiens, UniProt Q5S007)
Experimental: as §1, §2, §3

TYK2 = TYK2 (Homo sapiens, UniProt P29597)
Experimental: as §1, §2, §3

Measured: inhibition at 0.01 µM

Chain of CDK7 (P50613 whole entry): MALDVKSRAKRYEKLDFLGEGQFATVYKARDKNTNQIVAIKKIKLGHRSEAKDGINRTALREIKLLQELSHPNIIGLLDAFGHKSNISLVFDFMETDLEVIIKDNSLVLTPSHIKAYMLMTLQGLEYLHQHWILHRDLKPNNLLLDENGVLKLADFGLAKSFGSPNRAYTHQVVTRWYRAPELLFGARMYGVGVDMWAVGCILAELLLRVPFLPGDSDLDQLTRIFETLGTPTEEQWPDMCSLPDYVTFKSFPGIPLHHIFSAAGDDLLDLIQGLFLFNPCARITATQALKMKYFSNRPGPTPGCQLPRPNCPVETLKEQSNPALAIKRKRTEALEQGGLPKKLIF
Chain of CDK7 (P51946 whole entry partner): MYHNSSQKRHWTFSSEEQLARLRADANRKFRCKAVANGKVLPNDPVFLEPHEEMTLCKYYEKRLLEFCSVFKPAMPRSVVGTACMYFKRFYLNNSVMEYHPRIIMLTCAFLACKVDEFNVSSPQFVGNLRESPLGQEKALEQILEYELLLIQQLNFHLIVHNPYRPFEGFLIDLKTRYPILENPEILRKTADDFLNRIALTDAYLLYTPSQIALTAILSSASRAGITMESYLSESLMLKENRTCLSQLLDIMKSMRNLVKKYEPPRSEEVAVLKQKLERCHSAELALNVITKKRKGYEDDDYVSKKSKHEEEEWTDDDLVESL
Chain of CDK7 (P51948 whole entry partner): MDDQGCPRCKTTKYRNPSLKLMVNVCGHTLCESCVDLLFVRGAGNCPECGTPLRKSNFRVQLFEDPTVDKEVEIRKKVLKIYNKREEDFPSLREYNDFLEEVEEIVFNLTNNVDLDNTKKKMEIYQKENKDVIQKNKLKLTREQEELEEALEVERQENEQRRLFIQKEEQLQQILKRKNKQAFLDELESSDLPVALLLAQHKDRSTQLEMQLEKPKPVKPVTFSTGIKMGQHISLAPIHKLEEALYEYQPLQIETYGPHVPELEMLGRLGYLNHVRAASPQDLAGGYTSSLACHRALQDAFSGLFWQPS
Chain of TYK2 (P29597 whole entry): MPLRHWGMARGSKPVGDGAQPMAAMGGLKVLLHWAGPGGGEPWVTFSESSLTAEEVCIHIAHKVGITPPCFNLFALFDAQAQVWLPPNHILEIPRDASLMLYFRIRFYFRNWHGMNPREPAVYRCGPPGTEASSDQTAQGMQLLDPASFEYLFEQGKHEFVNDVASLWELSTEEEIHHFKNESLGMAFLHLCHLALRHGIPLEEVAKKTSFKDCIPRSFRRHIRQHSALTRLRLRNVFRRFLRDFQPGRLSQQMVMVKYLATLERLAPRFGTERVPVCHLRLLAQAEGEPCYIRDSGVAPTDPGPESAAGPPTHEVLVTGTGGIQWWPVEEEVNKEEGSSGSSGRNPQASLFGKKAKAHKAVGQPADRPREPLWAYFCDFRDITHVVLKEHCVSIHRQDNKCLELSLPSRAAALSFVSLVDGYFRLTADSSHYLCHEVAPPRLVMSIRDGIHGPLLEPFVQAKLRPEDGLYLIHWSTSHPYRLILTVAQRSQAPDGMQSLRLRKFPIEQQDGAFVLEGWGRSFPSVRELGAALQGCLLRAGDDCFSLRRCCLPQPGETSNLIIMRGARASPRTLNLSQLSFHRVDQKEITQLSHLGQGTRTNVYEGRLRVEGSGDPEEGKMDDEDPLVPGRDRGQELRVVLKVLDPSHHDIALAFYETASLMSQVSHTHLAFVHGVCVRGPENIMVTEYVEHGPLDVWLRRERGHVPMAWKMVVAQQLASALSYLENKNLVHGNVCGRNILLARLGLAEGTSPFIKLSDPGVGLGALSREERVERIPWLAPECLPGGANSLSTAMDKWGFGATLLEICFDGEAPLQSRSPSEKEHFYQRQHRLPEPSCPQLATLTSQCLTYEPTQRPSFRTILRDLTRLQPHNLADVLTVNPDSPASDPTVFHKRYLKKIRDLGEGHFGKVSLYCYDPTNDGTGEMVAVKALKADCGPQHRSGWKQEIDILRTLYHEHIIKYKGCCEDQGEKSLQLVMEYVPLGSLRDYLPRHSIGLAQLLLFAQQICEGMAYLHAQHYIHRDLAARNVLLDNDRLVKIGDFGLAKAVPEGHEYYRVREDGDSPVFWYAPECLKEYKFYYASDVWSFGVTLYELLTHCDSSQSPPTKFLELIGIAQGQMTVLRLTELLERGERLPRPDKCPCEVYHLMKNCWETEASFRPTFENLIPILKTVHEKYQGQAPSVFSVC
Chain of LRRK2 (Q5S007 whole entry): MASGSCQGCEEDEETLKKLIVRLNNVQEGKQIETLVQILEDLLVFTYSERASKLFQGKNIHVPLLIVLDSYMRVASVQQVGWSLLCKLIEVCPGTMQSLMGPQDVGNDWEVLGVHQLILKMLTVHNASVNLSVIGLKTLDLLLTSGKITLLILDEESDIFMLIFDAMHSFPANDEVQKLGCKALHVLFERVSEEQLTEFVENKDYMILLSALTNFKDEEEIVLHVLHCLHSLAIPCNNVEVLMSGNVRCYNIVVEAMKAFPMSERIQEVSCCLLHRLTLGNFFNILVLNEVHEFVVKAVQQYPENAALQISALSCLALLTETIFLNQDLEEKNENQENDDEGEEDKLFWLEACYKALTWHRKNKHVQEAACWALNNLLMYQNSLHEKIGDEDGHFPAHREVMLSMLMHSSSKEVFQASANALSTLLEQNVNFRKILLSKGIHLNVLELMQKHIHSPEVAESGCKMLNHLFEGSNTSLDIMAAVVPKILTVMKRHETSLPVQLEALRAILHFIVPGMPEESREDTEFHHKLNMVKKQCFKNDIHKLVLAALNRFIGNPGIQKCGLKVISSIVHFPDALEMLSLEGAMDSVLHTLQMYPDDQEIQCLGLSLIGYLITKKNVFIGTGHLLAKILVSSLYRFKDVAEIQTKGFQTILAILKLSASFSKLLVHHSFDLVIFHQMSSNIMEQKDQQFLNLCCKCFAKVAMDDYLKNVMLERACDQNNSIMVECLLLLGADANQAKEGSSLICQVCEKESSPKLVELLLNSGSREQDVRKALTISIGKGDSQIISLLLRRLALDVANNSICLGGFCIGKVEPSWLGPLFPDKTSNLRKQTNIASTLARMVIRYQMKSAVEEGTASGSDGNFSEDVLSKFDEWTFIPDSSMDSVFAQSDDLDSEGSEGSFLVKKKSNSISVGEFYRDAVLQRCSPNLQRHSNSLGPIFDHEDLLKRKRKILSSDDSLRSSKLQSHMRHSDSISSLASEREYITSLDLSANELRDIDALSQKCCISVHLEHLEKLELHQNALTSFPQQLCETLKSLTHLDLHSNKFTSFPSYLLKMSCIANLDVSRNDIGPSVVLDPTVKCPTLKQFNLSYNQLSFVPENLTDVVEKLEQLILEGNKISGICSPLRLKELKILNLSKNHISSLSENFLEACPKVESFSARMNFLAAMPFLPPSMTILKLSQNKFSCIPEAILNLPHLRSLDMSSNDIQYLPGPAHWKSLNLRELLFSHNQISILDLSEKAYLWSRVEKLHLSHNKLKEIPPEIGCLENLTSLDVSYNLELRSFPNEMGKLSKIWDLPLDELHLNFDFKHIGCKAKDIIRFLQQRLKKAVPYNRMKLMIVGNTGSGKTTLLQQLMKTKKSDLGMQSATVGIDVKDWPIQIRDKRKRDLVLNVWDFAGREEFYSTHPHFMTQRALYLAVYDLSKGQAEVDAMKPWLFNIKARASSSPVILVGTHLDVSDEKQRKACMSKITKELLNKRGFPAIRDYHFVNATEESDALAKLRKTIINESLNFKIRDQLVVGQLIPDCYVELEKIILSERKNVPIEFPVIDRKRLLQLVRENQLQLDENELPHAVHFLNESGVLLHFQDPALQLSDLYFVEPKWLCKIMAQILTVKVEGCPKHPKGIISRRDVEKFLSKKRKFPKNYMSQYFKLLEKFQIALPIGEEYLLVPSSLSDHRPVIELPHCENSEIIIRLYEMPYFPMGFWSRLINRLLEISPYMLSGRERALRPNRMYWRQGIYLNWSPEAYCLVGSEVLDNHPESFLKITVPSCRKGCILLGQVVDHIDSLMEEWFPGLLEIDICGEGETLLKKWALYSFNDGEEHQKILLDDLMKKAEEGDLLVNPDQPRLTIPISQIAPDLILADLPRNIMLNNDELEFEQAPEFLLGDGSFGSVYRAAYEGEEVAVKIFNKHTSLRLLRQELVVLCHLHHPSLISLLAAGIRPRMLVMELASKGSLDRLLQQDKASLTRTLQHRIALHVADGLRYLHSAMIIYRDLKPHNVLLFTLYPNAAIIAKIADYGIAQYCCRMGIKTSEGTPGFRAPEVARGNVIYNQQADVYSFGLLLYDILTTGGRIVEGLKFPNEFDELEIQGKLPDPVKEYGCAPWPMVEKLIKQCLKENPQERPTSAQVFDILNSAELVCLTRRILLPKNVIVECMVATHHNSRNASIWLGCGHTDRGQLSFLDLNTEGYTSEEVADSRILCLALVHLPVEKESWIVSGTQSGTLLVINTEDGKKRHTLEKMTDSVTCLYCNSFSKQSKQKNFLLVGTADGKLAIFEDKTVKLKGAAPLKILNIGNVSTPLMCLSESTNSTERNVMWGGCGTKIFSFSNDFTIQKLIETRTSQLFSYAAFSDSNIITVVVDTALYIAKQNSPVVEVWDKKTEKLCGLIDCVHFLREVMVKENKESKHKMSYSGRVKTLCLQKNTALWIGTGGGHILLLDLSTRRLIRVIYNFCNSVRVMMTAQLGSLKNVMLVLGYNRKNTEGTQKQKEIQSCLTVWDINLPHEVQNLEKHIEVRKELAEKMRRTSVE

Clc1cnc2nc1NCCCCCNCc1cccc(c1)N2 [Compound 8, 1^5-chloro-2,5,11-triaza-1(2,4)-pyrimidina-3(1,3)-benzenacyclodecaphane]
< 25%: all assays above
